From the METLIN SMRT retention time set (Domingo-Almenara et al. 2019)

Test: gradient 5% acetonitrile 3 min, to 50% in 2 min, to 85% in 15 min, held 3 min, 100 µL/min
Settings: column: Zorbax Extend-C18 2.1 x 50 mm; eluents: water / acetonitrile, 0.1% formic acid
Outline: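 Retention time was recorded from adduct peaks, which were picked computationally and each inspected manually. Pure standards ran in mixtures of ~100 molecules on HPLC coupled to a quadrupole time-of-flight mass spectrometer, in positive and negative ionization mode, through a Zorbax Extend-C18 column (2.1 × 50 mm, 1.8 μm) at 100 μL/min. Eluents were water and acetonitrile, each with 0.1% formic acid.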

Structure (SMILES): Cn1cc(CCNS(=O)(=O)c2ccccc2Br)c2cccnc21
- RP-LC retention time: 741 s

Structure (SMILES): Cc1nc2cc(-c3noc(Cc4c(Cl)cccc4Cl)n3)ccc2o1
- RP-LC retention time: 1130 s

Structure (SMILES): CCN1CCn2cc(S(=O)(=O)NCc3ccccc3Cl)cc2C1=O
- RP-LC retention time: 713 s

Structure (SMILES): O=S(=O)(c1cc(-c2noc(C3CCCC3)n2)cs1)N1CCCCC1
- RP-LC retention time: 1240 s

Structure (SMILES): COC(=O)c1nnn(-c2cccc(Cl)c2C)c1C(=O)OC
- RP-LC retention time: 936 s

Structure (SMILES): COCCCNC(=O)Cn1nc(C)c2nn(-c3ccc(F)cc3)c(-n3cccc3)c2c1=O
- RP-LC retention time: 795 s

Structure (SMILES): CC(N)Cc1c[nH]c2ccc(OCc3cccs3)cc12 (configuration not stated)
- RP-LC retention time: 734 s

Structure (SMILES): O=[N+]([O-])c1ccc(/C=C\c2ccncc2)cc1
- RP-LC retention time: 685 s

Structure (SMILES): CC1CCCN(CC(=O)Nc2nc(-c3ccccc3)cs2)C1 (configuration not stated)
- RP-LC retention time: 655 s

Structure (SMILES): CC(C)NC(=O)c1nsc(C(=O)N2CCN(c3ncccn3)CC2)c1N
- RP-LC retention time: 764 s

Structure (SMILES): O=C(NCc1ccc(F)cc1)Nc1cccn2ncnc12
- RP-LC retention time: 718 s

Structure (SMILES): COc1ccc(C2(C(=O)N3CCC4(CC3)CC(C)(O)CCO4)CC2)cc1 (configuration not stated)
- RP-LC retention time: 707 s

Structure (SMILES): Cc1nc(-c2cc(S(=O)(=O)Nc3ccc(Br)c(C)c3)c(C)s2)cs1
- RP-LC retention time: 1120 s

Structure (SMILES): CSc1cccc(NC(=O)CCCn2nc(-n3cccc3)c3c(C)cc(C)nc32)c1
- RP-LC retention time: 1040 s

Structure (SMILES): COc1cccc(Cn2cc(S(=O)(=O)N3CCCCCC3)ccc2=O)c1
- RP-LC retention time: 895 s

Structure (SMILES): CC1Oc2ccc(-c3csc(NC(=O)c4ccc(F)cc4)n3)cc2N(C)C1=O (configuration not stated)
- RP-LC retention time: 1010 s

Structure (SMILES): Cc1cc(C(=O)N2CCCCC2)c2c(=O)n(Cc3ccc4nonc4c3)c(=O)n(C)c2n1
- RP-LC retention time: 902 s

Structure (SMILES): CCOc1ccc(NC(=O)N(C)CC2CCOCC2)cc1
- RP-LC retention time: 719 s

Structure (SMILES): O=C(NCc1ccccc1)c1nc2ccccn2c1-c1ccsc1
- RP-LC retention time: 842 s

Structure (SMILES): COc1ccc(-c2noc(CN3CCN(c4ccccn4)CC3)n2)cc1
- RP-LC retention time: 621 s

Structure (SMILES): CCOc1ccc(-c2csc(Cc3nc(-c4ccccc4Cl)no3)n2)cc1
- RP-LC retention time: 1290 s

Structure (SMILES): COc1cccc(Cn2c(=O)c3sccc3n(Cc3nc(-c4ccc(C)c(C)c4)no3)c2=O)c1
- RP-LC retention time: 1200 s

Structure (SMILES): Cc1ccc(N2CC(c3nc(-c4ccc(N(C)C)cc4)no3)CC2=O)cc1Cl (configuration not stated)
- RP-LC retention time: 1160 s

Structure (SMILES): O=C(NC1CCN(c2ccccc2)C1=O)c1ccc(Br)cc1 (configuration not stated)
- RP-LC retention time: 844 s

Structure (SMILES): COc1ncc(C(=O)Nc2cc(C)ccc2F)c(C)n1
- RP-LC retention time: 756 s

Structure (SMILES): CC(C)c1ccc(S(=O)(=O)N2C[C@@H](F)C[C@H]2C(=O)N2CCc3ccccc3C2)cc1
- RP-LC retention time: 1060 s

Structure (SMILES): O=C(NCCN1CCCC1)C1CCN(c2cnn(CC3CC3)c(=O)c2)C1 (configuration not stated)
- RP-LC retention time: 577 s

Structure (SMILES): Cc1cc(C)cc(NC(=O)C2(C)Oc3cccnc3NC2=O)c1 (configuration not stated)
- RP-LC retention time: 702 s

Structure (SMILES): COc1ccc(-c2noc(Cc3nc(-c4ccc(Br)cc4)cs3)n2)c(OC)c1
- RP-LC retention time: 1180 s

Structure (SMILES): O=C(O)CSc1nnc(Br)n1-c1ccc(C2CC2)c2ccccc12
- RP-LC retention time: 949 s

Structure (SMILES): Cc1ccc(C)c(N2CCN(c3ccc4cc(S(=O)(=O)N5CCCCC5)ccc4n3)CC2)c1
- RP-LC retention time: 1360 s

Structure (SMILES): Cc1ccc(CNC(=O)CN2CCN(Cc3ccccc3C)C(=O)C2=O)cc1
- RP-LC retention time: 779 s

Structure (SMILES): CC1CCN(S(=O)(=O)c2cc(C(=O)Nc3ccc(F)c(Cl)c3)n(C)c2)CC1
- RP-LC retention time: 1170 s

Structure (SMILES): c1cc(-c2nc(-c3ccc(OC4CNC4)cc3)no2)ccn1
- RP-LC retention time: 604 s

Structure (SMILES): CC(C)N1CCn2cc(S(=O)(=O)Nc3cccc(Cl)c3)cc2C1=O
- RP-LC retention time: 805 s

Structure (SMILES): Cn1nc(-c2nncn2CC2CC2)c2c1CCN(C(=O)CC1CCCC1)C2
- RP-LC retention time: 753 s

Structure (SMILES): Cn1nc(C(=O)N2CCCC(C(=O)Nc3ccccc3)C2)c2c1CCN(C(=O)Cc1cccs1)C2 (configuration not stated)
- RP-LC retention time: 748 s

Structure (SMILES): COC(=O)Nc1ccc(-c2nc(N3CCOCC3)c3cnn(C4CCN(C(=O)OC)CC4)c3n2)cc1
- RP-LC retention time: 861 s

Structure (SMILES): O=c1n(CC2CC2)nc2n1CCC(NS(=O)(=O)c1cccnc1)CC2 (configuration not stated)
- RP-LC retention time: 621 s

Structure (SMILES): CC1CCN(C(=O)c2cn(-c3cc(N4CCOCC4)ncn3)cn2)CC1
- RP-LC retention time: 729 s

Structure (SMILES): COc1ccccc1OCCNC(=O)C1CC(=O)N(c2n[nH]c3ccccc23)C1 (configuration not stated)
- RP-LC retention time: 682 s

Structure (SMILES): COc1ccc(-c2cn3c(CC(=O)NCc4ccc(N(C)C)cc4)csc3n2)cc1OC
- RP-LC retention time: 588 s

Structure (SMILES): CCOc1ccccc1NC(=O)C1CCN(S(=O)(=O)c2cn(C(C)C)cn2)CC1
- RP-LC retention time: 846 s

Structure (SMILES): CCn1nc(-c2ccccc2)c(-c2ccccc2)c(C(=O)NCCN(C)C)c1=O
- RP-LC retention time: 648 s

Structure (SMILES): O=C(Nc1nc(-c2ccc3ccccc3c2)cs1)c1ccc(Cl)cc1Cl
- RP-LC retention time: 1220 s

Structure (SMILES): Cc1cnc(CCNC(=O)NCC(C)C)n1C1CCCCCC1
- RP-LC retention time: 588 s

Structure (SMILES): Cc1noc(C2(NC(=O)/C=C/c3cccnc3)CCCCC2)n1
- RP-LC retention time: 609 s

Structure (SMILES): CCn1ccc(C(=O)N2CCCC2c2ccc(OC)cc2)n1 (configuration not stated)
- RP-LC retention time: 795 s

Structure (SMILES): CCC(C)NC(=O)Cc1c[nH]c2ncccc12 (configuration not stated)
- RP-LC retention time: 562 s

Structure (SMILES): C=CCn1c(C)c(CC(=O)NC(C)C)c(=O)n2nc(-c3ccccc3)nc12
- RP-LC retention time: 733 s

Structure (SMILES): Cc1ccc(-c2nc3cnccn3c2Nc2ccc(C(C)C)cc2)cc1
- RP-LC retention time: 1140 s

Structure (SMILES): Cc1sc(C)c(S(=O)(=O)NCC2CCCO2)c1-c1cc(C(F)(F)F)on1 (configuration not stated)
- RP-LC retention time: 1020 s

Structure (SMILES): O=C(NC1(c2nc(-c3ccccc3)no2)CCCCC1)c1cccc(F)c1
- RP-LC retention time: 1180 s

Structure (SMILES): Cc1ccc(S(=O)(=O)N2CCC3(CC2)NCCN=C3NCc2ccccc2F)cc1
- RP-LC retention time: 709 s

Structure (SMILES): Cc1cc(C)c2nc(C)cc(C(=O)NCC(C)C)c2c1
- RP-LC retention time: 701 s

Structure (SMILES): CNC(=O)[C@@H]1CN(C(=O)c2ccsc2)C[C@H]1c1nc(C)no1
- RP-LC retention time: 615 s

Structure (SMILES): Cc1cc(C)c(C#N)c(SCC(=O)Nc2nccs2)n1
- RP-LC retention time: 750 s

Structure (SMILES): CCn1c(=O)c(N2CCCC(C(=O)N3CCN(c4cccc(Cl)c4)CC3)C2)nc2ccccc21 (configuration not stated)
- RP-LC retention time: 1240 s

Structure (SMILES): O=C(O)C1CCN(c2nc3ccc(-c4cccnc4)nc3s2)CC1
- RP-LC retention time: 610 s

Structure (SMILES): O=C(CCc1nnc2c3cc(-c4ccc(F)cc4)nn3ccn12)NCCc1ccccn1
- RP-LC retention time: 603 s

Structure (SMILES): Cc1ccc(C2Cn3cnc(C(=O)N4CCC(C(=O)NC5CCCCC5)CC4)c3CO2)cc1 (configuration not stated)
- RP-LC retention time: 794 s

Structure (SMILES): Cc1cc2c(cc1S(=O)(=O)N1CCC(C(=O)NCCC3=CCCCC3)CC1)OCC(=O)N2
- RP-LC retention time: 820 s

Structure (SMILES): COc1cc(Cl)ccc1C(=O)NC1CCN(c2cc(-c3cccs3)[nH]n2)C1 (configuration not stated)
- RP-LC retention time: 795 s

Structure (SMILES): CCCNC(=O)C1CCN(c2ccc(SCC(=O)Nc3cccc(C(C)C)c3)nn2)CC1
- RP-LC retention time: 728 s

Structure (SMILES): CCc1nn2c(CNC(=O)c3cc(F)ccc3Cl)c(C)nc2s1
- RP-LC retention time: 669 s

Structure (SMILES): COc1nn(C)cc1C(=O)Nc1nnc(-c2csc(C)n2)o1
- RP-LC retention time: 578 s

Structure (SMILES): COc1ccc(-n2cc(C(=O)OCCc3ccccn3)c3ccccc3c2=O)cc1
- RP-LC retention time: 714 s

Structure (SMILES): Nc1nc(N2CCCC2)nc2ccccc12
- RP-LC retention time: 592 s

Structure (SMILES): Cc1ccc(S(=O)(=O)NCC2CN(C(C)C)CC23CCCCC3)c(C)c1 (configuration not stated)
- RP-LC retention time: 738 s

Structure (SMILES): CCSc1nnc(-c2nn(C)c3c2CN(S(=O)(=O)c2ccc4c(c2)OCCO4)CC3)n1CC
- RP-LC retention time: 895 s

Structure (SMILES): COc1ccc(NS(=O)(=O)c2cc3n(c2)CCCNC3=O)cc1Cl
- RP-LC retention time: 677 s

Structure (SMILES): CCCC(=O)N1CCC2(CC1)C(=O)N(C)c1ccccc12
- RP-LC retention time: 764 s

Structure (SMILES): CN1CCN(Cc2nc3cc(NC(=O)C4CCCCC4)ccc3n2C)CC1
- RP-LC retention time: 574 s

Structure (SMILES): CCN(CC)c1nc2ccsc2c(=O)n1CC(=O)NCc1ccc(Cl)cc1
- RP-LC retention time: 908 s

Structure (SMILES): O=C(NCc1cccc(Br)c1)c1nc(Cn2c(=O)oc3ccccc32)no1
- RP-LC retention time: 895 s

Structure (SMILES): Cc1cccc(CC(=O)N2C[C@@H]3C[C@H](NS(C)(=O)=O)[C@H]2C3)c1
- RP-LC retention time: 662 s

Structure (SMILES): Cc1nc(-c2ccccc2)nc2c1CCC(=O)N2C(C)C
- RP-LC retention time: 1060 s

Structure (SMILES): COc1cc(NC(=O)Cn2c(=O)n(-c3ccc(C)cc3)c(=O)c3c2cc(C)n3C)cc(OC)c1
- RP-LC retention time: 866 s

Structure (SMILES): CC1CC(C)CN(CCCNC(=O)c2ccc3c(c2)NC(=O)CS3)C1 (configuration not stated)
- RP-LC retention time: 605 s

Structure (SMILES): Cc1c(-c2noc(-c3ccccc3)n2)nnn1-c1ccccc1
- RP-LC retention time: 1060 s

Structure (SMILES): O=S(=O)(c1ccc(F)cc1)N1CCCC(c2nnnn2-c2ccccc2)C1 (configuration not stated)
- RP-LC retention time: 934 s

Structure (SMILES): CCOc1ccc(S(=O)(=O)N2CCC(C(=O)NCC3CCCO3)CC2)cc1 (configuration not stated)
- RP-LC retention time: 750 s

Structure (SMILES): COc1ccccc1-c1noc(Cn2c(=O)n(CCc3ccccc3)c(=O)c3sccc32)n1
- RP-LC retention time: 1030 s

Structure (SMILES): O=C(Cn1ccc2ccccc21)N1CCN(S(=O)(=O)C2CC2)CC1
- RP-LC retention time: 563 s

Structure (SMILES): O=C(CCN1C(=O)c2cccc3cccc(c23)C1=O)NC1CCS(=O)(=O)C1 (configuration not stated)
- RP-LC retention time: 641 s

Structure (SMILES): Cc1ccc(CN(C)Cc2cc(=O)n3ccccc3n2)cc1
- RP-LC retention time: 606 s

Structure (SMILES): O=c1ccc(N2CCC(NS(=O)(=O)c3ccccc3C(F)(F)F)C2)n[nH]1 (configuration not stated)
- RP-LC retention time: 687 s

Structure (SMILES): CC(C)c1noc(C2(NC(=O)c3cccc(F)c3)CCCCC2)n1
- RP-LC retention time: 1040 s

Structure (SMILES): CC1(C)CC(=O)c2cn(-c3ccc(F)cc3)c(=O)c(C(=O)N3CCN(c4ccccn4)CC3)c2C1
- RP-LC retention time: 636 s

Structure (SMILES): Cc1nc(-c2ccc(F)cc2)nc2c1CCC(=O)N2Cc1ccco1
- RP-LC retention time: 720 s

Structure (SMILES): COc1cccc(CNC(=O)c2cn3cc(C)ccc3n2)c1OC
- RP-LC retention time: 541 s

Structure (SMILES): CCOc1ccc(-c2csc(Nc3ccccn3)n2)cc1
- RP-LC retention time: 910 s
